Laboratory results from US20200123147A1, “THIAZOLE COMPOUNDS USEFUL AS PRMT5 INHIBITORS” (Bayer Aktiengesellschaft, priority 2017, published 2020).

How the values were obtained:
[1] = test system: PRMT5 (histone H4 Arg3 SDMA levels in MDA-MB-468 cells); experiment: In vitro assay 2: quantification of SDMA (symmetric dimethylarginine) expression levels (H4 Arg3) in cancer cells, High-Content Analysis; format: cell-based; conditions: Homo sapiens, 72 h, SDMA histone H4 (Arg3) average signal intensity per cell
Description: In Vitro Assay 2: Quantification of SDMA (Symmetric Dimethylarginine) Expression Levels (H4 Arg3) After Small Molecule Treatment of Cancer Cells
The SDMA-assay based on High-Content Analysis (HCA) enables the biological characterization of compounds inhibiting PRMT5. By this assay, substances are benchmarked on their cellular activity to modulate histone H4 Arg3 levels over broad inhibitor concentration ranges.
Cultivated cells of the human mammary gland tumor cell line MDA-MB-468 (ATCC HTB-132) were plated at a density of 2500 cells per well in a 384-well microtiter plate in 20 μL of Roswell Park Memorial Institute (RPMI) 1640 medium supplemented with 1% (v/v) glutamine, 1% (v/v) penicillin, 1% (v/v) streptomycin and 10% (v/v) fetal calf serum. After pre-incubation at 37° C. overnight, test compo unds solubilized in DMSO were added at various concentrations (0 μM, as well as in the range of 0.005 μM-30 μM; the final concentration of the solvent DMSO was 0.5% (v/v)). Cells were incubated at 37° C. for 72 h in the presence of test compounds. Thereafter, cells were fixed with 4% (v/v) paraformaldehyde in phosphate buffered saline (PBS) at room temperature for 1 h, permeabilized using 0.5% (v/v) Triton X™ 100 in PBS for 15 min and blocked with 1% (v/v) bovine serum albumin (BSA) in PBS for 30 min. In the following, cells were incubated with anti-dimethyl-histone H4 (Arg3) symmetric antibody (Millipore #07-947) at RT for 2 h. After a single washing step with blocking solution, cells were incubated with species-specific fluorescent conjugated secondary antibody Alexa Fluor™ 488 (Jackson Immuno Research #111-546-003) at RT for 2 h.
Image acquisition for cells was carried out using the confocal imaging system OPERA® (PerkinElmer). Images were captured using two channels: Hoechst 33342 stain (DNA) and Alexa Fluor™ 488 (SDMA staining); and were analyzed using the MetaXpress® software (Molecular Devices). Exposure times were chosen for individual experiments to prevent saturation and allow for quantification in the linear range. A minimum of 500 cells in 5 field views were analyzed per well using 10× water immersion objective with a two-fold binning.
The image analysis routine was developed in MetaXpress®. The standardized image-analysis module “Count Nuclei” and the images of the DNA-channel were used for nuclei segmentation. The segmented nuclei were filtered for size, shape and signal intensity to exclude possible apoptotic and non-viable cells along with metaphase nuclei. These phenotypes result in overestimated antibody signals, due to their strong chromatin compaction. For further processing, binary object masks were calculated from the segmented and positively selected nuclei. The binary masks served as templates to be superimposed over the images of the SDMA channel. The SDMA average signal intensity per cell was quantified for every image set. The assay raw data were further analyzed by four parameter logistic regression analysis using Genedata's Assay Analyzer® and Condoseo® software to determine the IC50 value for each tested compound.

[2] = molecular target: T1, PRMT5:MEP50 protein complex (Homo sapiens, UniProt O14744); experiment: In vitro assay 1: PRMT5 SPA assay ("EAA"); format: biochemical; conditions: scintillation proximity assay, methylation of biotinylated H4(1-24) peptide, 3H-SAM, 60 min at 22° C.
T1 construct: FLAG (N); made in house; host or cells: Hi5 insect cells
T1 sequence (O14744 whole entry, species assumed): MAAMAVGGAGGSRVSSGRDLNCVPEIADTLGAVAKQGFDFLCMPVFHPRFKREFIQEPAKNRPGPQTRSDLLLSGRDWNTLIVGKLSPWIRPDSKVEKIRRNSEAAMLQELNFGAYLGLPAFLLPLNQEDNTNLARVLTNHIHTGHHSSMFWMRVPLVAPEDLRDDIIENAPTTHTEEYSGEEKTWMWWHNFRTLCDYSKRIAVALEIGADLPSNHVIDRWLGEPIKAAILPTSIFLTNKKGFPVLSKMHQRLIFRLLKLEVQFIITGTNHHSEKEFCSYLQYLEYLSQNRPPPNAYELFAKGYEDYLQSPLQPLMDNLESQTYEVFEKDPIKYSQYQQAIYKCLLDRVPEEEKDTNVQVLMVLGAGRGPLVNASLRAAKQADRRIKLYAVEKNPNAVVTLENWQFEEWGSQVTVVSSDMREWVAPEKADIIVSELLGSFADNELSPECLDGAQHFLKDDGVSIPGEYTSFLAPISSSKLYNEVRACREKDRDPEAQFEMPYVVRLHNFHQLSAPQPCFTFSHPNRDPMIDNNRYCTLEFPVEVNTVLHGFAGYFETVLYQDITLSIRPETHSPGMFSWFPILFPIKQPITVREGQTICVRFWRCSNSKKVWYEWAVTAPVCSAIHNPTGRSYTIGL
T1 sequence (Q9BQA1 whole entry partner, species assumed): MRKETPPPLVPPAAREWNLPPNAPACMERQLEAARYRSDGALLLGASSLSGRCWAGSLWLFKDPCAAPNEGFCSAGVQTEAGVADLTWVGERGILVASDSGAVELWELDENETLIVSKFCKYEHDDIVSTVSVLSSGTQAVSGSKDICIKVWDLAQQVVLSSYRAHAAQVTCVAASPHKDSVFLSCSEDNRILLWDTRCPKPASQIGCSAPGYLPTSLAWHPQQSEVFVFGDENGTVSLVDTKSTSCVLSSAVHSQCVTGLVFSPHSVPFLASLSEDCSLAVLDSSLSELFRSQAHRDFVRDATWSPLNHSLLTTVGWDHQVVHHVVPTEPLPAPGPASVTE
Description: In Vitro Assay 1: PRMT5 SPA Assay (“EAA”)
PRMT5 inhibitory activities of the compounds described in the present invention were quantified using a scintillation proximity assay (SPA) which measures methylation by the enzyme of a synthetic, biotinylated peptide corresponding to the N-terminal sequence of Histone H4 (a.a. 1-24). The peptide of sequence […]-K(Btn)-amide is commercially available (e.g. from Biosyntan) and will be herein referred to as H4(1-24). The PRMT5:MEP50 protein complex used in the assay was produced in house following standard protocols. Briefly, full length PRMT5 and MEP50 constructs respectively tagged with N-terminal FLAG and 6× His sequences were co-expressed in Hi5 insect cells, and the recombinant protein complex was purified by FLAG affinity and size exclusion chromatography.
In a typical assay 11 different concentrations of each compound (0.1 nM, 0.33 nM, 1.1 nM, 3.8 nM, 13 nM, 44 nM, 0.15 μM, 0.51 μM, 1.7 μM, 5.9 μM and 20 μM) were tested in duplicate within the same microtiter plate. To this end, 100-fold concentrated compound solutions (in DMSO) were previously prepared by serial dilution (1:3.4) of 2 mM stocks in a clear low volume 384-well source microtiter plate (Greiner Bio-One), from which 50 nl of compounds were transferred into a white low volume test microtiter plate from the same supplier. Subsequently, 2.5 μL PRMT5 in aqueous assay buffer [20 mM Bicine pH 8.0 (Alfa Aesar), 7.5 mM Tris(2-carboxyethyl) phosphine hydrochloride (TCEP, Sigma), 0.1% (w/v) bovine gamma globuline (BGG, Sigma), 0.002% (v/v) Tween-20 (Sigma)] were added to the compounds in the test plate to a final enzyme concentration of—typically—7.5 nM (this parameter was adjusted depending on the activity of the enzyme lot in order to be within the linear dynamic range of the assay). The samples were then incubated for 15 min at 22° C. to allow pre-equilibration of the putative enzyme-inhibitor complexes before the start of the methylation reaction, which was initiated by the addition of 2.5 μL 2-fold concentrated solution (in assay buffer) of “cold” S-Adenosyl-L-Methionine (SAM, Sigma, final concentration: 0.5 μM), tritiated 3H-SAM (Perkin Elmer, final concentration: 0.5 μM) and H4(1-24) peptide substrate (final concentration: 0.06 μM). The resulting mixture (5 μL final volume) was shortly centrifuged (2 min., 1500 rpm) and incubated at 22° C. during 60 min. Thereupon the reaction was stopped by adding 3 μL of Streptavidin PS SPA imaging beads (Perkin Elmer, final concentration of 0.375 μg/μL) and “cold” SAM (AK Scientific, 250 μM final concentration) for non-specific binding reduction. Plates containing the stopped reaction were sealed with transparent adhesive foil (Perkin Elmer), centrifuged (2 min., 1500 rpm), and further incubated either 1 h at 22° C. or overnight at 4° C. in order to allow the SPA signals to develop. Subsequently, the amount of product was evaluated by measuring the energy transfer from the β-particles emitted by the 3H-labeled substrate to the Europium scintillator co-polymerized in the polystyrene matrix of the PS imaging beads, using the standard settings for this purpose of a Viewlux (Perkin-Elmer) CCD plate imaging device (emission filter 613/55 (IFP).
The resulting scintillation counts were taken as indicator for the amount of methylated peptide per well. The data were normalised using two sets of control wells (typically 16 each) for high—(=enzyme reaction with DMSO instead of test compound=0%=minimum inhibition) and low—(=all assay components without enzyme=100%=maximum inhibition) PRMT5 activity. IC50 values were calculated by fitting the normalized inhibition data to a 4-parameter logistic equation using the “Screener” analysis software from Genedata.

| SMILES | IC50 [1] | IC50 [2] |
| --- | --- | --- |
| O=C(Nc1cc(-c2ccccc2)[nH]n1)c1csc(Nc2ccc(Cl)cc2)n1 [Example 1, 2-[(4-Chlorophenyl)amino]-N-(5-phenyl-1H-pyrazol-3-yl)-1,3-thiazole-4-carboxamide] | ≥ 30000 nM | 54.8 nM |
| CC(C)(C)c1cc(NC(=O)c2csc(Nc3ccccn3)n2)no1 [Example 2, N-(5-tert-Butyl-1,2-oxazol-3-yl)-2-(pyridin-2-ylamino)-1,3-thiazole-4-carboxamide] | 2450 nM | 78 nM |
| CC(C)(C)c1cc(NC(=O)c2csc(Nc3ccccc3)n2)no1 [Example 3, N-(5-tert-Butyl-1,2-oxazol-3-yl)-2-(phenylamino)-1,3-thiazole-4-carboxamide] | 25400 nM | 177 nM |
| CC(C)(C)c1cc(NC(=O)c2csc(Nc3ccc(Cl)cc3)n2)no1 [Example 4, N-(5-tert-Butyl-1,2-oxazol-3-yl)-2-[(4-chlorophenyl)amino]-1,3-thiazole-4-carboxamide] | 20800 nM | 104 nM |
| O=C(Nc1cc(C2CC2)n[nH]1)c1csc(Nc2ccc(Cl)cc2)n1 [Example 5, 2-[(4-Chlorophenyl)amino]-N-(3-cyclopropyl-1H-pyrazol-5-yl)-1,3-thiazole-4-carboxamide] | ≥ 30000 nM | 113 nM |
| CC(C)(C)c1cc(NC(=O)c2csc(Nc3ccc(F)cc3)n2)no1 [Example 7, N-(5-tert-Butyl-1,2-oxazol-3-yl)-2-[(4-fluorophenyl)amino]-1,3-thiazole-4-carboxamide] | 17600 nM | 149 nM |
| O=C(Nc1nc2ccccc2s1)c1csc(Nc2ccc(Cl)cc2)n1 [Example 8, N-(1,3-Benzothiazol-2-yl)-2-[(4-chlorophenyl)amino]-1,3-thiazole-4-carboxamide] | ≥ 30000 nM | 111 nM |
| Cn1nc(NC(=O)c2csc(Nc3ccccc3)n2)cc1C(F)(F)F [Example 10, N-[1-Methyl-5-(trifluoromethyl)-1H-pyrazol-3-yl]-2-(phenylamino)-1,3-thiazole-4-carboxamide] | 27900 nM | 238 nM |
| CC(C)(C)c1cc(NC(=O)c2csc(Nc3ccc(Cl)cc3)n2)n[nH]1 [Example 12, N-(5-tert-Butyl-1H-pyrazol-3-yl)-2-[(4-chlorophenyl)amino]-1,3-thiazole-4-carboxamide] | 22100 nM | 295 nM |
| CC(C)(C)c1cc(NC(=O)c2csc(Nc3ccc([N+](=O)[O-])cc3)n2)no1 [Example 13, N-(5-tert-Butyl-1,2-oxazol-3-yl)-2-[(4-nitrophenyl)amino]-1,3-thiazole-4-carboxamide] | 26100 nM | 344 nM |
| O=C(Nc1cc(C2CC2)n[nH]1)c1csc(Nc2ccccc2)n1 [Example 14, N-(3-Cyclopropyl-1H-pyrazol-5-yl)-2-(phenylamino)-1,3-thiazole-4-carboxamide] | 18600 nM | 303 nM |
| CCn1ccc(NC(=O)c2csc(Nc3ccc(Cl)cc3)n2)n1 [Example 15, 2-[(4-Chlorophenyl)amino]-N-(1-ethyl-1H-pyrazol-3-yl)-1,3-thiazole-4-carboxamide] | ≥ 30000 nM | 400 nM |
| O=C(NCCCCN1CCc2ccccc2C1)c1csc(Nc2ccc(Cl)cc2)n1 [Example 17, 2-[(4-Chlorophenyl)amino]-N-[4-(3,4-dihydroisoquinolin-2(1H)-yl)butyl]-1,3-thiazole-4-carboxamide] | 10000 nM | 585 nM |
| Cc1ccc(Nc2nc(C(=O)Nc3cc(C(C)(C)C)on3)cs2)cc1Cl [Example 18, N-(5-tert-Butyl-1,2-oxazol-3-yl)-2-[(3-chloro-4-methylphenyl)amino]-1,3-thiazole-4-carboxamide] | ≥ 30000 nM | 819 nM |
| O=C(Nc1ccon1)c1csc(Nc2ccc(Cl)cc2)n1 [Example 19, 2-[(4-Chlorophenyl)amino]-N-(1,2-oxazol-3-yl)-1,3-thiazole-4-carboxamide] | ≥ 30000 nM | 775 nM |
| Cc1cc(NC(=O)c2csc(Nc3ccc(Cl)cc3)n2)no1 [Example 20, 2-[(4-Chlorophenyl)amino]-N-(5-methyl-1,2-oxazol-3-yl)-1,3-thiazole-4-carboxamide] | ≥ 30000 nM | 971 nM |
| CC(C)(C)c1cc(NC(=O)c2csc(Nc3ccc(Cl)c(Cl)c3)n2)no1 [Example 21, N-(5-tert-Butyl-1,2-oxazol-3-yl)-2-[(3,4-dichlorophenyl)amino]-1,3-thiazole-4-carboxamide] | 26700 nM | 1390 nM |
| Cc1cc(F)ccc1Nc1nc(C(=O)Nc2cc(C(C)(C)C)on2)cs1 [Example 50, N-(5-tert-Butyl-1,2-oxazol-3-yl)-2-[(4-fluoro-2-methylphenyl)amino]-1,3-thiazole-4-carboxamide] | – | 6710 nM |
| C#Cc1cccc(Nc2nc(C(=O)Nc3cc(C(C)(C)C)on3)cs2)c1 [Example 51, N-(5-tert-Butyl-1,2-oxazol-3-yl)-2-[(3-ethynylphenyl)amino]-1,3-thiazole-4-carboxamide] | – | 10500 nM |
| CC(C)(C)c1cc(NC(=O)c2csc(Nc3cccc(F)c3F)n2)no1 [Example 52, N-(5-tert-Butyl-1,2-oxazol-3-yl)-2-[(2,3-difluorophenyl)amino]-1,3-thiazole-4-carboxamide] | – | 12300 nM |
| CC(C)(C)c1cc(NC(=O)c2csc(Nc3ccc(F)nc3)n2)no1 [Example 53, N-(5-tert-Butyl-1,2-oxazol-3-yl)-2-[(6-fluoropyridin-3-yl)amino]-1,3-thiazole-4-carboxamide] | – | 15200 nM |
